Data as given in patent US20230167132A1, “FORMS AND COMPOSITIONS OF INHIBITORS OF PLASMA KALLIKREIN” (Takeda Pharmaceutical Company Limited, priority 2020, published 2023).
“And” between values parts separate entries of the source, which are not always exact repeats. Identical values can stand only once. “Also recorded” adds a separate entry of the source. Like-named read-outs stand apart in the source and are kept apart here.

Experiments:
[1] = Intrinsic Dissolution Rate (IDR), Sirius inForm; type: physicochemical; details: for IDR Sector 1 average (pH 2.0) / IDR Sector 1 pH 2.0: pH 2.0, 37° C.; for IDR Sector 1 pH 2.0: individual runs; for sector 1 IDR compared to free base form Compound 1 Form 1 / other forms: pH 2.0, comparison in words; for XRPD Analysis Post Dissolution: solid form of disc after IDR analysis
Description: About 40 mg of the sample was compressed in a 6 mm disc recess, under 100 kg for 2 minutes, with greaseproof paper on the compression base, to form nondisintegrating discs. The discs were then plugged with a bung so that only one surface was exposed to the media during analysis and transferred to the Sirius inForm dissolution apparatus. Analysis was performed at 37° C. in 40 mL media (36 mL ISA water, 4 mL 0.1 M Acetate Phosphate Buffer). Dissolution data were collected over 4 pH sectors (pH 2.0, 5.5, 6.5, and 7.4) for a total of 2 hours—30 minutes per sector, with UV spectra collected every 30 seconds. A stir speed of 225 rpm was used with a 10 mm path length probe. The IDR was calculated based on the surface area of the 3/6/8 mm disc recess used (28.3 mm2 surface area). XRPD analysis was performed on all samples, both after compression of the material into the disc recess, and post dissolution analysis to observe any change in form. XRPD diffractograms were collected on the Bruker C2.

[2] = Competitive slurry / thermodynamic stability of solid forms; type: physicochemical; details: competitive slurries at 5 and 50° C. in selected solvents, XRPD
Description: To these, 40 vol (1 mL) selected solvents was added and the material slurried at 5° C. or 50° C. for 72 hours on a HEL polyblock (500 rpm stirring). Solids were subsequently isolated by filtration and dried under suction prior to analysis by XRPD. In all but one experiment, Form 1 was the sole detectable phase by XRPD obtained after 72 hours.
These were mixed, and then aliquots (20 mg) of this mixture were dispensed into HPLC vials and 90 vol (1.8 mL) selected solvents added. Samples were slurried using a Polar Bear with 500 rpm magnetic stirring at 5 and 50° C. After 24 hours, aliquots were removed and analysed by XRPD. Experiment numbers: 01-10.
120 mg of both Compound 6 Pattern 1 and Compound 6 Pattern 4 were dispensed into a 20 mL vial. These were mixed, and then aliquots (20 mg) of this mixture was dispensed into HPLC vials and 90 vol selected solvents were added. Samples were slurried using a Polar Bear with 500 rpm magnetic stirring. Aliquots were removed after four days and analyzed by XRPD.

[3] = Storage for one week at 40° C./75% RH and 25° C./97% RH, XRPD; type: physicochemical
[4] = Gravimetric vapour sorption (GVS) analysis; type: physicochemical; details: for XRPD post GVS analysis: change of solid form after GVS; for GVS hygroscopicity: classification in words
plasma kallikrein = plasma kallikrein (Homo sapiens, UniProt P03952); details: in vitro kallikrein kinase assay, reported in the '129 publication; cited from earlier work
Sequence of plasma kallikrein (P03952 20-638, species assumed): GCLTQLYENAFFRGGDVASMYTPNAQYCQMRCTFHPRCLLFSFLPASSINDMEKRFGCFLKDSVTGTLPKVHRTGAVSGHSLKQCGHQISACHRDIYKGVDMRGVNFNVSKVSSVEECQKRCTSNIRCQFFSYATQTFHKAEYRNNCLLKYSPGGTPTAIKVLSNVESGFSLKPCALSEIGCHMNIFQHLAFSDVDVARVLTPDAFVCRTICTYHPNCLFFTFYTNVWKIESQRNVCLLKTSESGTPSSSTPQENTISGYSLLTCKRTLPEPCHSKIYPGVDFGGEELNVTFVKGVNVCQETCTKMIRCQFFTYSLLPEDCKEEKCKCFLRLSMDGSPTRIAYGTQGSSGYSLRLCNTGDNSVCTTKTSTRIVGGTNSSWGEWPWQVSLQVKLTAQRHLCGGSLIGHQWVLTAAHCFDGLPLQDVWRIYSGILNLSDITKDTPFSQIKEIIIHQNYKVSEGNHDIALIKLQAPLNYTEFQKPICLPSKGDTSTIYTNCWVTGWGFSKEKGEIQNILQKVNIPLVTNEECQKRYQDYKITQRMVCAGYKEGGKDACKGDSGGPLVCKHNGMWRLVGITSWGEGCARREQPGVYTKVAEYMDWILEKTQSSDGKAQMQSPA

[5] = Solubility of Compound 1 in various solvents; type: physicochemical
Description: Solubility of >10 mg/mL was only observed in DMSO, NMP and MeOH:DCM 1:3 at 50° C.

[6] = one week (7 days), scaled-up / characterised material

Compound: O=C(NCc1ncn2ccc(Cl)c(F)c12)c1cn(Cc2cn3cc(C4CC4)ccc3n2)nn1.O=C(O)C(=O)O [Compound 6 Pattern 1]
- IDR Sector 1 average (pH 2.0) [1]: 866.8 μg/min/cm^2
- IDR Sector 1 average (pH 2.0) ([1]; listed as Oxalate Pattern 1): 866.8 μg/min/cm^2
- IDR Sector 1 pH 2.0 ([1]; listed as Oxalate Pattern 1): 895.9 μg/min/cm^2 and 837.7 μg/min/cm^2
- sector 1 IDR compared to free base form Compound 1 Form 1 / other forms [1]: increased sector 1 IDR
- XRPD Analysis Post Dissolution ([1]; listed as Oxalate Pattern 1): Partial conversion to Compound 1
- thermodynamic stability relative to other solid forms ([2]; listed as Oxalate Pattern 1): Less thermodynamically stable
- Storage 25° C./97% RH, XRPD [3, 6]: unchanged by XRPD
- Storage 40° C./75% RH, XRPD [3, 6]: unchanged by XRPD
- Storage 40° C./75% RH, XRPD ([3]; one week, material isolated from salt/cocrystal screening experiments): slightly changed
- GVS mass increase ([4]; between 0 and 90% RH): 0.6%
- XRPD post GVS analysis [4]: no observed change
- GVS hygroscopicity [4]: slightly hygroscopic

Compound: O=C(NCc1ncn2ccc(Cl)c(F)c12)c1cn(Cc2cn3cc(C4CC4)ccc3n2)nn1.O=C(O)C(=O)O [Compound 6 Pattern 4]
- IDR Sector 1 average (pH 2.0) ([1]; listed as Oxalate Pattern 4): 674.7 μg/min/cm^2
- IDR Sector 1 pH 2.0 ([1]; listed as Oxalate Pattern 4): 692.8 μg/min/cm^2 and 656.6 μg/min/cm^2
- sector 1 IDR compared to free base form Compound 1 Form 1 / other forms [1]: increased sector 1 IDR
- XRPD Analysis Post Dissolution ([1]; listed as Oxalate Pattern 4): Partial conversion to Compound 1
- thermodynamic stability relative to other solid forms [2]: more thermodynamically stable of the two solvent-free oxalate salts; also recorded: more thermodynamically stable than Compound 6 Pattern 1
- thermodynamic stability relative to other solid forms ([2]; listed as Oxalate Pattern 4): More thermodynamically stable
- Storage 25° C./97% RH, XRPD [3, 6]: unchanged by XRPD
- Storage 40° C./75% RH, XRPD [3, 6]: unchanged by XRPD
- GVS mass loss ([4]; between 0 and 90% RH): 0.66%
- XRPD post GVS analysis [4]: unchanged
- GVS hygroscopicity [4]: slightly hygroscopic

Compound: O=C(NCc1ncn2ccc(Cl)c(F)c12)c1cn(Cc2cn3cc(C4CC4)ccc3n2)nn1 [Compound 1, N-((7-chloro-8-fluoroimidazo[1,5-a]pyridin-1-yl)methyl)-1-((6-cyclopropylimidazo[1,2-a]pyridin-2-yl)methyl)-1H-1,2,3-triazole-4-carboxamide]
- EC50 (plasma kallikrein): < 1 nM
- solubility ([5]; 25 °C, organic solvent or mixture, all solvents assessed, Compound 1 as synthesized in Example 1, read-out: solubility at 25° C.): < 10000 µg/mL
- solubility ([5]; Acetone, 50 °C, organic solvent or mixture, read-out: Solubility at 50° C.): < 10000 µg/mL
- solubility ([5]; Acetone:H2O 9:1, 50 °C, organic solvent or mixture, read-out: Solubility at 50° C.): < 10000 µg/mL
- solubility ([5]; Acetonitrile, 50 °C, organic solvent or mixture, read-out: Solubility at 50° C.): < 10000 µg/mL
- solubility ([5]; Acetonitrile:H2O 1:1, 50 °C, aqueous with cosolvent or surfactant or cyclodextrin, read-out: Solubility at 50° C.): < 10000 µg/mL
- solubility ([5]; DCM, 50 °C, organic solvent or mixture, read-out: Solubility at 50° C.): < 10000 µg/mL
- solubility ([5]; DMAC, 50 °C, organic solvent or mixture, read-out: Solubility at 50° C.): < 10000 µg/mL
- solubility ([5]; DMF, 50 °C, organic solvent or mixture, read-out: Solubility at 50° C.): < 10000 µg/mL
- Solubility at 50° C. ([5]; DMSO): >10000 µg/mL
- solubility ([5]; DMSO, 50 °C, organic solvent or mixture, read-out: Solubility at 50° C.): > 10000 µg/mL
- solubility ([5]; Ethanol, 50 °C, organic solvent or mixture, read-out: Solubility at 50° C.): < 10000 µg/mL
- solubility ([5]; Ethyl acetate, 50 °C, organic solvent or mixture, read-out: Solubility at 50° C.): < 10000 µg/mL
- solubility ([5]; IPA, 50 °C, organic solvent or mixture, read-out: Solubility at 50° C.): < 10000 µg/mL
- solubility ([5]; IPAC, 50 °C, organic solvent or mixture, read-out: Solubility at 50° C.): < 10000 µg/mL
- solubility ([5]; MEK, 50 °C, organic solvent or mixture, read-out: Solubility at 50° C.): < 10000 µg/mL
- solubility ([5]; MIBK, 50 °C, organic solvent or mixture, read-out: Solubility at 50° C.): < 10000 µg/mL
- solubility ([5]; MeOH:Chlorobenzene (1:1), 50 °C, organic solvent or mixture, read-out: Solubility at 50° C.): < 10000 µg/mL
- Solubility at 50° C. ([5]; MeOH:DCM 1:3): >10000 µg/mL
- solubility ([5]; MeOH:DCM 1:3, 50 °C, organic solvent or mixture, read-out: Solubility at 50° C.): > 10000 µg/mL
- solubility ([5]; MeOH:H2O 9:1, 50 °C, organic solvent or mixture, read-out: Solubility at 50° C.): < 10000 µg/mL
- solubility ([5]; MeOH:Toluene (1:1), 50 °C, organic solvent or mixture, read-out: Solubility at 50° C.): < 10000 µg/mL
- solubility ([5]; MeOH:anisole (1:1), 50 °C, organic solvent or mixture, read-out: Solubility at 50° C.): < 10000 µg/mL
- solubility ([5]; Methanol, 50 °C, organic solvent or mixture, read-out: Solubility at 50° C.): < 10000 µg/mL
- Solubility at 50° C. ([5]; NMP): >10000 µg/mL
- solubility ([5]; NMP, 50 °C, organic solvent or mixture, read-out: Solubility at 50° C.): > 10000 µg/mL
- solubility ([5]; TBME, 50 °C, organic solvent or mixture, read-out: Solubility at 50° C.): < 10000 µg/mL
- solubility ([5]; THF, 50 °C, organic solvent or mixture, read-out: Solubility at 50° C.): < 10000 µg/mL
- solubility ([5]; THF:H2O 9:1, 50 °C, organic solvent or mixture, read-out: Solubility at 50° C.): < 10000 µg/mL
- solubility ([5]; Toluene, 50 °C, organic solvent or mixture, read-out: Solubility at 50° C.): < 10000 µg/mL
- solubility ([5]; n-heptane, 50 °C, organic solvent or mixture, read-out: Solubility at 50° C.): < 10000 µg/mL
- solubility ([5]; t-BuOH, 50 °C, organic solvent or mixture, read-out: Solubility at 50° C.): < 10000 µg/mL
- solubility ([5]; t-BuOH:H2O 1:1, 50 °C, aqueous with cosolvent or surfactant or cyclodextrin, read-out: Solubility at 50° C.): < 10000 µg/mL

Compound: O=C(NCc1ncn2ccc(Cl)c(F)c12)c1cn(Cc2cn3cc(C4CC4)ccc3n2)nn1 [Compound 1 Form 1, N-((7-chloro-8-fluoroimidazo[1,5-a]pyridin-1-yl)methyl)-1-((6-cyclopropylimidazo[1,2-a]pyridin-2-yl)methyl)-1H-1,2,3-triazole-4-carboxamide]
- IDR Sector 1 average (pH 2.0) [1]: 104.8 μg/min/cm^2
- IDR Sector 1 pH 2.0 [1]: 104.3 μg/min/cm^2 and 105.2 μg/min/cm^2
- XRPD Analysis Post Dissolution [1]: No change
- thermodynamic stability relative to other solid forms [2]: more thermodynamically stable than Compound 1 Form 3
- thermodynamic stability relative to other solid forms ([2]; listed as Form 1): more thermodynamically stable than Form 2; also recorded: more thermodynamically stable polymorph; also recorded: polymorph most stable to typical storage and process conditions
- Storage 25° C./97% RH, XRPD [3, 6]: Compound 1 Form 1
- Storage 40° C./75% RH, XRPD [3, 6]: Compound 1 Form 1
- GVS increase in mass ([4]; RH range not given): 0.5%
- XRPD post GVS analysis [4]: Material unchanged by XRPD post GVS
- GVS hygroscopicity [4]: slightly hygroscopic
